Reference: publication PMC2585100 (Retrovirology, 2008)
Read-outs that look alike come from different tables or passages of the source.

Assays:
[1] = system: primary human CD4+ T cells; test: Binding of peptides to CD4+ target cells (2F5 IgG, flow cytometry), primary cells; conditions: 1 h at room temperature, RPMI 10% FCS, micro-molar range
Description: (§1) Binding of peptides was evaluated using either the lymphocytic cell line CD4^+- CEM-NK^r (NK-resistant) cells (NIH AIDS Reagent Programm, USA)or PHA-activated CD4^+ T cells purified from peripheral blood of 5 healthy donors using human CD4^+ T cells enrichment kit (StemCell Technologies Inc., France). 5 × 10^5 cells were incubated with indicated concentrations of peptide for 1 h at room temperature in a total volume of 50 microliter/μl of RPMI 10%FCS. After 2 wahses in cold medium, bound peptide was detected with the human IgG 2F5 (10 microg/μg), or irrelevant human IgG as control, for 1 h at 37°C followed anti-human IgG-FITC mAb (1:1000, Jackson ImmunoResearch, France). Binding of peptides to CD4^+ cells was evaluated by flow cytometry (FACSCalibur, Becton Dickinson) on 10^4 events, gated by forward and side scatter and analyzed for FL1 (FITC channel) using the Cytomix RXP software.

[2] = system: CD4+ CEM-NKr lymphocytic cell line; test: Binding of peptides to CD4+ target cells (2F5 IgG, flow cytometry), cell line; parameters: species or system human; conditions: 1 h at room temperature, RPMI 10% FCS, micro-molar range
Description: as §1

[3] = parameters: method as in 2 sources, one per row (each row's own in cited_ref): ref 20 = [20]; PMID 17553560; doi:10.1016/j.ceca.2007.04.011; Yu H Alfsen A Tudor D Bomsel M The binding of HIV-1 gp41 membrane proximal domain to its mucosal receptor, galactosyl ceramide, is structure-dependent Cell Calcium 2008 43 73 82 17553560 10.1016/j.cec ||| ref 36 = [36]; PMID 17276993; doi:10.1074/jbc.M609148200; Liu S Jing W Cheung B Lu H Sun J Yan X Niu J Farmar J Wu S Jiang S HIV gp41 C-terminal heptad repeat contains multifunctional domains. Relation to mechanisms of action of anti-HIV peptides J Biol Chem; conditions: Table 1, left column; cited from earlier work
[4] = system: T20-sensitive HIV-1 strains (pre-ENF and JRCSF); test: Single-cycle infectivity assay, T20-sensitive strains, U373MG-CD4-CCR5-LTR-lacZ cells; type: cell-based; conditions: P5 more potent than T20
Excerpt: (§2) We constructed viruses bearing the envelope glycoproteins derived from virus populations present before and during T20 treatment of a patient who received T20 as part of a salvage therapy, as we reported earlier. […] Each chimeric proviral clone was obtained by replacing the AgeI-NheI fragment of a modified pNL4-3 vector (nt 6346 to 8287 in pNL4-3) by a AgeI-NheI PCR fragment amplified from the envelope subclone. Sequences of oligonucleotides used for PCR and site-directed mutagenesis can be provided upon request. […] [29].
(§3) These assays were performed as previously described. Two days before infection, U373MG-CD4-CCR5-LTR-lacZ cells were seeded into 96-well plates at a density of 2,000 cells/well. […] Forty hours after infection, cells were lysed using 100 μl/well of lysis buffer (5 mM MgCl2 and 0.1% NP-40 in 1× phosphate-buffered saline), prior to addition of 100 μl/well of chromogenic substrate (6 mM chlorophenol red-β-D-galactopyranoside; CPRG, Roche) in lysis buffer.

[5] = system: T20-resistant HIV-1 strains (ENF-1 and ENF-2); test: Single-cycle infectivity assay, T20-resistant strains, U373MG-CD4-CCR5-LTR-lacZ cells; type: cell-based; conditions: at concentrations as much as 250- to 2000-fold higher than the IC50 of P5
Excerpt: as §2, §3

HIV-1JRCSF (R5 virus) = type: cell-based; conditions: PBMC, peptide at 1 μM
Description: (§4) Neutralization of HIV-1 infectivity for PBMC was performed as previously described by analysing intracellular staining of p24 Ag after a single round of infection. […] PHA-stimulated PBMC (25 μl, 2 × 10^5 cells/well) were added to the mixture. After overnight incubation, 100 μl of culture medium containing 20 U/ml of IL-2 were added and cells were cultured for an additional 24 h at 37°C. For intracellular p24 Ag staining, cells were fixed with 4% paraformaldehyde for 20 min, permeabilized with 0.05% saponin and stained with a fluorescent anti-p24 mAb (PE-anti-p24, KC57 clone, Beckman Coulter, Hialeah, FL) as a 1/160 dilution in 1% BSA, 0.05% saponin in PBS (pH = 7.4) for 15–20 min at 4°C. The percentage of p24 positive cells was monitored by flow cytometry (FACScalibur with the XL software) by gating 20,000 events on the living cell population identified by forward- and side-scatter parameters.

HIV-1Lai (X4 virus) = test: Neutralization of HIV-1 infection of PBMC, intracellular p24 staining (X4 virus); type: cell-based; conditions: peptide at 1 μM
Description: as §4

[6] = Far-UV circular dichroism, α-helical content; type: physicochemical; conditions: 10 μM in PBS
Description: Far-UV circular dichroism (CD) was performed using 10 μM of each peptide solution in PBS. Each spectrum was recorded from 260 nm to 190 nm at 25°C by using a Jasco CD spectrophotometer (Jasco, Japan) with a cell path length of 0.05 cm. Spectra were collected as an average of three scans, with a scan speed of 20 nm/min and a response time of 2 sec. The control (solvent) CD spectra were subtracted to eliminate background effects. Data were reported in millidegrees and converted to molar ellipticity [θ] in units as follows: degree cm^2 dmol^-1. The percentage of α-helical content was estimated by assuming that a [θ]222 value of -33000 deg cm^2 dmol^-1corresponds to 100% α-helix.
CD spectroscopy is a practical and efficient method for secondary structure characterization of a protein or peptide.
Far-UV CD spectra were all recorded at room temperature, with a path-length of 0.05 cm. Peptide concentration was 10 microM in PBS, pH 7.2.

[7] = system: HIV-Lai env mediated fusion of Hela-env-Lai cells with HeLa P4.2 (Hela-CD4-LTR-LacZ) cells; test: HIV-1 env-mediated cell-to-cell fusion assay (β-galactosidase read-out); type: cell-based; conditions: for IC50: 6 h co-culture at 37°C, DMEM with calcium, others chemically synthesized; for inhibition of cell-cell fusion: peptide at 1 μM
Description: Fifteen minutes later, target cells (HeLa P4.2) were added to the wells (10^5 per well) and co-cultured for 6 h at 37°C. Then, cell-cell fusion was monitored by beta-galactosidase assay. Briefly, cells were lysed in 80 μl of lysis buffer (5% NP40 in PBS without CaCl2 and MgCl2) for 10 min and then centrifuged at 10,000 g for 5 min at 4°C. Equal volumes (50 μl) of lysate and reaction buffer (120 mM Na2HPO4, 80 mM NaH2PO4, 2 mM MgSO4, 20 mM KCl, 10 mM β-mercaptoethanol, 16 mM CPRG (chlorophenol red-β-D-galactopyranoside, Roche, France) were combined and incubated for 60 min at room temperature in the dark. The absorbance at 590 nm of each sample was measured.
Cell fusion experiments are convenient assays for analysis of the mechanism by which peptides inhibit virus entry into host cells. Hela-CD4-LTR-LacZ (P4.2) cells stably express the human CD4 molecule, CXCR4 and long terminal repeat (LTR) driven lacZ gene. Hela-env-Lai cells stably express HIV-Lai envelope glycoproteins gp120 and gp41, and the HIV-1 transactivator Tat. Fusion of Hela-Env-Lai cells and P4.2 cells results in transferring Tat to P4.2 cell cytosol. Tat in turn, transactivates the LTR and initiates transcription of the lacZ gene. The extent of fusion is directly related to β-galactosidase activity in cell lysates.
Different concentrations (≤ 1 μM) of peptides were incubated with HeLa-env-Lai cells in culture medium (DMEM) that contained calcium and magnesium, prior to addition of the P4.2 cells.

Substance	binding to primary human CD4+ T cells (in words) [1]	binding to CD4+ lymphocyte cell line CEM (in words) [2]	[θ]222 [3]	activity against T20-sensitive strains (in words) [4]	inhibition of T20-resistant strains (in words) [5]	inhibitory activity, R5 virus infection (HIV-1JRCSF (R5 virus))	inhibitory activity, X4 virus infection (HIV-1Lai (X4 virus); PBMC)	inhibition of PBMC infection by X4 virus (in words) (HIV-1Lai (X4 virus); human PBMC, HIV-Lai)	[θ]222 ([6]; Table 1, chemically synthesized peptides alone or with LZ)	IC50 ([7]; Table 2, right column, alone or in the presence of LZ, P7 recombinant, read-out: IC50 (nM, Mean ± S.D.))	inhibition of cell-cell fusion [7]	[θ]222 ([6]; Table 1, left column, chemically synthesized peptides alone or with N36)	IC50 ([7]; Table 2, left column, peptides 50 to 1000 nM, P5L recombinant, read-out: IC50g (nM, Mean ± S.D.))
Enfuvirtide	unable to bind	unable to bind	-2 10^-3deg cm^2dmol^-1	active	failed to inhibit	greater than 90%	greater than 90%	potent inhibition	–	–	–	–	–
LZ: peptide comprising the gp41 N-terminal leucine zipper domain, a.a. 560–594 (EAQQHLLQLTVWGIKQLQARILAVERYLKDQQLLG; gp41; UniProt P04578 560-594, looked up, fragment)	–	–	–	–	–	–	–	–	-4 10^-3deg cm^2dmol^-1	> 1000 nM	negligible inhibition	–	–
N36: gp41 NHR peptide a.a. 546–581, from the AIDS Research and Reference Reagent Program [Peptide N36]	–	–	–	–	–	–	–	–	–	–	negligible inhibition	-6 10^-3deg cm^2dmol^-1	> 1000 nM
